Tested on: up to 32 different microorganisms
Assay: in vitro antibacterial activity (MIC), agar dilution on Brain Heart Infusion (BHI) agar with Steers replicator
Assay type: cell-based
Settings: unit assumed
Method: Representative compounds of the present invention were assayed in vitro for antibacterial activity as follows: Twelve petri dishes containing successive aqueous dilutions of the test compound mixed with 10 mL of sterilized Brain Heart Infusion (BHI) agar (Difco 0148-01-5) were prepared. Each plate was inoculated with 1:100 (or 1:10 for slow-growing strains, such as Micrococcus and Streptococcus) dilutions of up to 32 different microorganisms, using a Steers replicator block. The inoculated plates were incubated at 35°-37° C. for 20 to 24 hours. In addition, a control plate, using BHI agar containing no test compound, was prepared and incubated at the beginning and end of each test.
An additional plate containing a compound having known susceptibility patterns for the organisms being tested and belonging to the same antibiotic class as the test compound was also prepared and incubated as a further control, as well as to provide test-to-test comparability. Erythromycin A was used for this purpose.
After incubation, each plate was visually inspected. The minimum inhibitory concentration (MIC) was defined as the lowest concentration of drug yielding no growth, a slight haze, or sparsely isolated colonies on the inoculum spot as compared to the growth control.

Structure (SMILES): CCC1OC(=O)C(C)C(=O)C(C)C(OC2OC(C)CC(N(C)C)C2O)C(C)(OCC=Cc2cnc3ccccc3c2)CC(C)C(=O)C(C)C2N(CCN(C)C)C(=O)OC12C (stereo not drawn) [Example 182, Compound of Formula (IX): L is CO, T is N (CH2CH2N(CH3)2), R is —CH2CH═CH(3-quinolyl)]
- MIC (Candida albicans CCH 442 (code TT)): > 100 µg/mL
- MIC (Enterococcus faecism ATCC 8043 (code II)): 0.1 µg/mL
- MIC (Escherichia coli DC-2 (code SS)): > 100 µg/mL
- MIC (Escherichia coli JUHL (code QQ)): > 100 µg/mL
- MIC (Escherichia coli SS (code RR)): 0.39 µg/mL
- MIC (Haemophilis influenzae DILL AMP R (code WW)): 8 µg/mL
- MIC (Micrococcus luteus ATCC 4698 (code PP)): 0.39 µg/mL
- MIC (Micrococcus luteus ATCC 9341 (code OO)): 0.02 µg/mL
- MIC (Mycobacterium smegmatis ATCC 114 (code UU)): 0.39 µg/mL
- MIC (Nocardia Asteroides ATCC9970 (code VV)): 0.2 µg/mL
- MIC (Staphylococcus aureus 1775 (code GG)): > 100 µg/mL
- MIC (Staphylococcus aureus A5177 (code BB)): 0.2 µg/mL
- MIC (Staphylococcus aureus A-5278 (code CC)): > 100 µg/mL
- MIC (Staphylococcus aureus ATCC 6538P (code AA)): 0.39 µg/mL
- MIC (Staphylococcus aureus CMX 553 (code FF)): 0.39 µg/mL
- MIC (Staphylococcus aureus CMX 642A (code DD)): 0.39 µg/mL
- MIC (Staphylococcus aureus NCTC10649M (code EE)): 0.39 µg/mL
- MIC (Staphylococcus epidermidis 3519 (code HH)): 0.78 µg/mL
- MIC (Streptococcus Pneumonia 5649 (code ZZA)): 2 µg/mL
- MIC (Streptococcus Pneumonia 5979 (code ZZ)): > 128 µg/mL
- MIC (Streptococcus Pneumonia ATCC6303 (code XX)): 0.125 µg/mL
- MIC (Streptococcus Pneumonia GYR 1171 (code YY)): 0.25 µg/mL
- MIC (Streptococcus agalactiae CMX 508 (code KK)): 0.05 µg/mL
- MIC (Streptococcus bovis A-5169 (code JJ)): 0.01 µg/mL
- MIC (Streptococcus pyogenes 930 (code MM)): 100 µg/mL
- MIC (Streptococcus pyogenes EES61 (code LL)): 0.01 µg/mL
- MIC (Streptococcus pyogenes PIU 2548 (code NN)): 0.39 µg/mL

Structure (SMILES): CCC1OC(=O)C(C)C(=O)C(C)C(OC2OC(C)CC(N(C)C)C2O)C(C)(OCC=Cc2ccc3cc(OCCBr)ccc3c2)CC(C)C(=O)C(C)C2NC(=O)OC12C (stereo not drawn) [Example 288, Compound of Formula (IX): L is CO, T is NH2, R is —CH2CH═CH-(6-(2-bromoethoxy)-2-naphthyl)]
- MIC (organism code AA): 0.1 µg/mL
- MIC (organism code BB): 0.2 µg/mL
- MIC (organism code CC): > 100 µg/mL
- MIC (organism code DD): 0.39 µg/mL
- MIC (organism code EE): 0.39 µg/mL
- MIC (organism code FF): 0.39 µg/mL
- MIC (organism code GG): 100 µg/mL
- MIC (organism code HH): 0.39 µg/mL
- MIC (organism code II): 0.39 µg/mL
- MIC (organism code JJ): 0.01 µg/mL
- MIC (organism code KK): 0.02 µg/mL
- MIC (organism code LL): 0.1 µg/mL
- MIC (organism code MM): 12.5 µg/mL
- MIC (organism code NN): 0.39 µg/mL
- MIC (organism code OO): 0.02 µg/mL
- MIC (organism code PP): 0.39 µg/mL
- MIC (organism code QQ): > 100 µg/mL
- MIC (organism code RR): 3.1 µg/mL
- MIC (organism code SS): > 100 µg/mL
- MIC (organism code TT): > 100 µg/mL
- MIC (organism code UU): 0.39 µg/mL
- MIC (organism code VV): 0.39 µg/mL
- MIC (organism code WW): 8 µg/mL
- MIC (organism code XX): 0.125 µg/mL
- MIC (organism code YY): 0.125 µg/mL
- MIC (organism code ZZ): 16 µg/mL
- MIC (organism code ZZA): 1 µg/mL
